In PubChem BioAssay AID1259407 (Chemical Carcinogenesis Research Information System (CCRIS), 2018):
Active and inactive are the calls of the source. The rule behind the calls is not given here.

Test system: CCRIS mutagenicity, Ames/micronucleus/aberration tests
Test: CCRIS mutagenicity studies

For `CC[C@]1(O)C[C@@H]2CN(CCc3c([nH]c4ccccc34)[C@@](C(=O)OC)(c3cc4c(cc3OC)N(C)[C@H]3[C@@](O)(C(=O)OC)[C@H](OC(C)=O)[C@]5(CC)C=CCN6CC[C@]43[C@@H]65)C2)C1`, the mutagenic call (End Point: IN VITRO CHROMOSOMAL ABERRATIONS, Test System: CHL/IU CELLS, Metabolic Activation: NONE) was “active; positive (ploidy changes)”, the mutagenic call (End Point: IN VITRO MICRONUCLEUS, Test System: CHL/IU CELLS, Metabolic Activation: NONE) was “active; positive” and the mutagenic call (End Point: IN VITRO MICRONUCLEUS, Test System: CHO CELLS, Metabolic Activation: RAT, LIVER, S-9, AROCLOR 1254) was “active; positive”. For the same molecule, the mutagenic call (End Point: IN VITRO MICRONUCLEUS, Test System: HAMSTER V79 CELLS, Metabolic Activation: NONE) was “active; positive”, the mutagenic call (End Point: IN VITRO MICRONUCLEUS, Test System: HUMAN PERIPHERAL BLOOD LYMPHOCYTES (FEMALES, AGE LESS THAN 30 AND AGE GREATER THAN 50 YR), Metabolic Activation: NONE) was “micronuclei elevated in elderly donors” and the mutagenic call (End Point: IN VITRO MICRONUCLEUS, Test System: V79 CELLS, Metabolic Activation: NONE) was “active; positive”. The mutagenic call (End Point: IN VIVO CHROMOSOMAL ABERRATIONS, Test System: BONE MARROW CELLS, Species: MOUSE, Strain/Sex: SWISS/MALE, FEMALE, Route: IP) was “active; positive”, the mutagenic call (End Point: IN VIVO MICRONUCLEUS, Test System: POLYCHROMATIC ERYTHROCYTES, Species: MOUSE, Strain/Sex: ALBINO SWISS/MALE, Route: IP) was “active; positive” and the mutagenic call (End Point: IN VIVO MICRONUCLEUS, Test System: POLYCHROMATIC ERYTHROCYTES, Species: MOUSE, Strain/Sex: SWISS/MALE, FEMALE, Route: IP) was “active; positive”. The mutagenic call (Test System: AMES SALMONELLA TYPHIMURIUM, Strain/Indicator: TA98, Metabolic Activation: NONE, Method: PREINCUBATION) was “inactive; negative”, the mutagenic call (Test System: AMES SALMONELLA TYPHIMURIUM, Strain/Indicator: TA98, Metabolic Activation: NONE, Method: STANDARD PLATE) was “inactive; negative” and the mutagenic call (Test System: AMES SALMONELLA TYPHIMURIUM, Strain/Indicator: TA98, Metabolic Activation: S-9, Method: PREINCUBATION) was “inactive; negative”. The mutagenic call (Test System: AMES SALMONELLA TYPHIMURIUM, Strain/Indicator: TA98, Metabolic Activation: S-9, Method: STANDARD PLATE) was “inactive; negative”, the mutagenic call (Test System: AMES SALMONELLA TYPHIMURIUM, Strain/Indicator: TA100, Metabolic Activation: NONE, Method: PREINCUBATION) was “inactive; negative” and the mutagenic call (Test System: AMES SALMONELLA TYPHIMURIUM, Strain/Indicator: TA100, Metabolic Activation: NONE, Method: STANDARD PLATE) was “inactive; negative”. For the same molecule, the mutagenic call (Test System: AMES SALMONELLA TYPHIMURIUM, Strain/Indicator: TA100, Metabolic Activation: S-9, Method: PREINCUBATION) was “inactive; negative”, the mutagenic call (Test System: AMES SALMONELLA TYPHIMURIUM, Strain/Indicator: TA100, Metabolic Activation: S-9, Method: STANDARD PLATE) was “inactive; negative” and the mutagenic call (Test System: AMES SALMONELLA TYPHIMURIUM, Strain/Indicator: TA1537, Metabolic Activation: S-9, Method: STANDARD PLATE) was “inactive; negative”. For the same molecule, the mutagenic call (Test System: E. COLI, Strain/Indicator: WP2 (HCR), Metabolic Activation: NONE, Method: STANDARD PLATE) was “inactive; negative”, the mutagenic call (Test System: E. COLI, Strain/Indicator: WP2 (HCR), Metabolic Activation: S-9, Method: STANDARD PLATE) was “inactive; negative” and the mutagenic call (Test System: MOUSE LYMPHOMA, Strain/Indicator: L5178Y(TK+/TK-), Metabolic Activation: NONE, Method: MICROWELL) was “active; positive”.
